The values below are quoted from earlier work in publication PMC3935482 (Clinical cancer research : an official journal of the …, 2013).

Read-outs that look alike come from different tables or passages of the source.

The mark [1] stands for this setting: oral rapamycin and IV temsirolimus.

For the molecule `CO[C@H]1C[C@@H]2CC[C@@H](C)[C@@](O)(O2)C(=O)C(=O)N2CCCC[C@H]2C(=O)O[C@H]([C@H](C)C[C@@H]2CC[C@@H](OP(C)(C)=O)[C@H](OC)C2)CC(=O)[C@H](C)/C=C(\C)[C@@H](O)[C@@H](OC)C(=O)[C@H](C)C[C@H](C)/C=C/C=C/C=C/1C` [deferolimus], the Half-life (given by weekly IV infusion) is 45 to 52 h.

Regarding `CO[C@H]1C[C@@H]2CC[C@@H](C)[C@@](O)(O2)C(=O)C(=O)N2CCCC[C@H]2C(=O)O[C@H]([C@H](C)C[C@@H]2CC[C@@H](O)[C@H](OC)C2)CC(=O)[C@H](C)/C=C(\C)[C@@H](O)[C@@H](OC)C(=O)[C@H](C)C[C@H](C)/C=C/C=C/C=C/1C` [rapamycin], the Cmax of rapamycin (5 mg oral rapamycin) is given as 15.5 ng/mL, the Cmax of rapamycin (9 mg oral rapamycin) is 37.9 ng/mL and the Cmax of rapamycin (60 mg oral rapamycin) is listed as 57.72 ng/mL. Under setting [1], the Half-life was 61 to 69 h.

Turning to `CO[C@H]1C[C@@H]2CC[C@@H](C)[C@@](O)(O2)C(=O)C(=O)N2CCCC[C@H]2C(=O)O[C@H]([C@H](C)C[C@@H]2CC[C@@H](OC(=O)C(C)(CO)CO)[C@H](OC)C2)CC(=O)[C@H](C)/C=C(\C)[C@@H](O)[C@@H](OC)C(=O)[C@H](C)C[C@H](C)/C=C/C=C/C=C/1C` [temsirolimus], the “Patients with dermatologic toxicities such as rash” value in the series on patients (patients receiving temsirolimus) is recorded as “up to 50%”. The “Grade 3 or 4 depression” value in the series on patients (phase 2 study, 250 mg dose level) is recorded as 10%. Further, the Half-life under setting [1] is 61 to 69 h.
